Results as given in patent US9382245B2, “Compounds and methods for treating HIV infections” (priority 2013, dated 2016).
Like-named read-outs stand apart in the source and are kept apart here. Marks after values point to notes of the source that are not given here.

What was measured:
[1] = tested on: IIIB strain of HIV-1 (wild-type); assay: microbe, parasite or virus in culture; assay type: cell-based
[2] = Aqueous solubility, shake-flask procedure; assay type: physicochemical
Protocol: Poor solubility, which has been a problem for many NNRTIs, often leads too low bioavailability, difficulties in formulation, and high dosages.^6,32,33 The issue reflects the hydrophobic nature of the NNRTI binding site. In the design of the catechol diethers, attention was paid to having both good potency and aqueous solubility. In our laboratory, solubilities are measured using a shake-flask procedure.^6,34 The compounds are dissolved in Britton-Robinson buffer and stirred in vials for 48 hours at 25° C. The pH of the buffer solutions is 6.5 as measured by a Corning General Purpose pH Combination probe (4136L21).

[3] = Table 2, cited from earlier work

N#Cc1cc2cccc(Oc3ccc(F)cc3OCCn3ccc(=O)[nH]c3=O)n2c1 [11a, 5-(2-(2-(2,4-dioxo-3,4-dihydropyrimidin-1(2H)-yl)ethoxy)-4-fluorophenoxy)indolizine-2-carbonitrile]
CC50 (in vitro; human): > 100 µM | fold less active, WT ([1]; 11a compared with its isomer 10f): 6 fold

O=c1ccn(CCOc2ccccc2Oc2cccc3ccccc23)c(=O)[nH]1 [14a, 1-(2-(2-(naphthalen-1-yloxy)phenoxy)ethyl)pyrimidine-2,4(1H,3H)-dione]
CC50 (human MT-2 T-cells; human): 80 µM | fold less active, WT ([1]; 14a compared with 14e): 100 fold

N#Cc1ccc2c(Oc3ccccc3OCCn3ccc(=O)[nH]c3=O)cccc2c1 [14e, 5-(2-(2-(2,4-dioxo-3,4-dihydropyrimidin-1(2H)-yl)ethoxy)phenoxy)-2-naphthonitrile]
CC50 (in vitro; human): > 100 µM | fold less soluble ([2]; 14e compared with indolizine 10b): 10 fold | fold improvement in solubility ([2]; 14e over etravirine and rilpivirine): ca. 40 fold | solubility at 48 h ([2]; Britton-Robinson buffer, 25 °C, pH 6.5, aqueous buffer, thermodynamic from solid, Table 2, pH 6.5, Britton-Robinson buffer, 48 hours at 25° C., read-out: S, aqueous solubility): 4.3 µg/mL | CC50 (human MT-2 T-cells; human): > 100 µM

O=C1Nc2ccc(Cl)cc2[C@@](C#CC2CC2)(C(F)(F)F)O1 [efavirenz, reference compound]
EC50 ([1]; Human immunodeficiency virus 1, IIIB, MT2, read-out: WT EC50): 0.002 µM

Cc1cc(C#N)cc(C)c1Oc1nc(Nc2ccc(C#N)cc2)nc(N)c1Br [etravirine]
S, aqueous solubility ([3]; Ref. 36): <<1^b μg/mL

Cc1ccnc2c1NC(=O)c1cccnc1N2C1CC1 [nevirapine, reference compound]
CC50 (in vitro): > 100 µM | S, aqueous solubility ([3]; Ref. 35): 167^a μg/mL | CC50 (human MT-2 T-cells; Table 3, 50% inhibition of MT-2 cell growth): > 100 µM | CC50 (human MT-2 T-cells; Table 4, 50% inhibition of MT-2 cell growth): > 100 µM
